Target: T1, P450RAI-1 (Homo sapiens, UniProt O43174)
T1 construct: expressed in transfected cells; host or cells: HeLa (stably transfected, hygromycin selection)
T1 sequence (O43174 1-497): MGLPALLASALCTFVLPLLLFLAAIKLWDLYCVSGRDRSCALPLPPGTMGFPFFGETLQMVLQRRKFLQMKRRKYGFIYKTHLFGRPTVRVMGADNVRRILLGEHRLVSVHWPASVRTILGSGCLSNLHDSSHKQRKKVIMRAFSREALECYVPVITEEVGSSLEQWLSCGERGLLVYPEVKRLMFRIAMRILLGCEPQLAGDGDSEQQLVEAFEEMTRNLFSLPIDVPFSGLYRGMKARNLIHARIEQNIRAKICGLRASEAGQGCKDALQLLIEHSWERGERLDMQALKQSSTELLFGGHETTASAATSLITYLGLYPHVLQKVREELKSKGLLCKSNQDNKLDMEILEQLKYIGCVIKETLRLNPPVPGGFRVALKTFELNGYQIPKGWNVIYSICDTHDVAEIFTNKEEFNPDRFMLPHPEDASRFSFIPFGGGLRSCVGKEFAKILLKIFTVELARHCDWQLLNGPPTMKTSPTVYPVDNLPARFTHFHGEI
Assay: P450RAI-1 cell-based inhibitor assay (intact HeLa)
Details: read-out: P450RAI INHIBITION DATA INTACT HELA IC50
Experimental: P450RAI-1 Cell-Based Inhibitor Assay:
P450RAI-1 stably transfected HeLa cells are maintained in […] tissue culture dishes in Modified Eagle's Medium (MEM) containing 10% Fetal Bovine Serum (FBS) and 100 μg/ml hygromycin. Exponentially growing cells are harvested by incubating in trypsin. Cells are then washed with 1× Phosphate Buffered Saline (PBS) and plated in a 48-well plate at 5×10^5 cells in 0.2 ml MEM medium containing 10% FBS and 0.05 μCi [^3H]-RA in the presence or absence of increasing concentrations of the test compounds. The compounds are diluted in 100% DMSO and then added in triplicate wells at either 10, 1 or 0.1 μM final concentration. As a positive control for RA metabolism inhibition, cells are also incubated with ketoconazole at 100, 10 and 1 μM. Cell are incubated for 3 hours at 37° C. […] The water soluble radioactivity is quantified using β-scintillation counter. IC50 values represent the concentration of inhibitor required to inhibit all-trans-RA metabolism by 50 percent and are derived manually from log-transformed data.

SMILES | IC50
CC1(C)CC(C)(C)c2cc(C(=O)Oc3ccc(C(=O)O)cc3)ccc2O1 [Compound 231] | 4.1 µM
Cc1cc(C(=O)Nc2ccc(C(=O)O)cc2)cc2c1OC(C)(C)CC2(C)C [Compound 227] | 1.3 µM
CC1(C)CCSc2ccc(C#Cc3ccc(C(=O)O)s3)cc21 [Compound 240] | 3 µM
CCC1(CC)CC(C)(C)c2cc(C(=O)Nc3ccc(C(=O)O)c(F)c3)cc(Br)c2O1 [Compound 206] | 1.8 µM
CC1(C)CCC(C)(C)c2cc(C(=O)Nc3ccc(C(=O)O)c(F)c3)ccc21 [Compound 237] | 6.8 µM
CC1(C)CCCc2ccc(C#Cc3ccc(C(=O)O)cc3)cc21 [Compound 208] | 1 µM
CC1(C)CCSc2ccc(C#Cc3ccc(C(=O)O)cn3)cc21 [Compound 238] | 7.2 µM
CC1=C(/C=C/C#Cc2ccc(C(=O)O)cn2)C(C)(C)CCC1 [Compound 244] | 5.1 µM
CC1=C(/C=C/C#Cc2ccc(C(=O)O)cc2)C(C)(C)CCC1 [Compound 217] | 6.3 µM
CC1(C)CC(C)(C)c2cc(C(=O)Nc3ccc(C(=O)O)c(F)n3)cc(Cl)c2O1 [Compound 221] | > 10 µM
CC1(C)CCC(C)(C)c2cc(C#Cc3ccc(C(=O)O)c(F)c3)ccc21 [Compound 230] | 5.1 µM
CCOc1c(I)cc(C(=O)Nc2ccc(C(=O)O)c(F)c2)cc1C(C)(C)C [Compound 222] | > 10 µM
CC1(C)CCC(C)(C)c2cc(-c3ccc4cc(C(=O)O)ccc4c3)ccc21 [Compound 241] | 5.5 µM
CC(C)(C)c1cc(C#Cc2ccc(C(=O)O)cc2)cc(C(C)(C)C)c1O [Compound 235] | 7 µM
CCOc1c(Br)cc(C(=O)Nc2ccc(C(=O)O)c(F)c2)cc1C(C)(C)C [Compound 223] | > 10 µM
COc1ccc(-c2ccc3cc(C(=O)O)ccc3c2)cc1C12CC3CC(CC(C3)C1)C2 [Compound 234] | 4.7 µM
CC1(C)CCC(C)(C)c2cc(C(=O)/C=C/c3ccc(C(=O)O)cc3)ccc21 [Compound 242] | 5.8 µM
Cc1cc(C(=O)Nc2ccc(C(=O)O)c(F)c2)cc2c1OC(C)(C)CC2(C)C [Compound 220] | 1 µM
CC1(C)CCC(O)c2ccc(C#Cc3ccc(C(=O)O)cc3)cc21 (stereo not drawn) [Compound 232] | 4.2 µM
CC1=C(/C=C/C#Cc2ccc(C(=O)O)cc2)C(C)(C)CCS1 [Compound 219] | 3.2 µM

SMILES | IC50
CC1(C)CC(C)(C)c2cc(C(=O)Nc3ccc(C(=O)O)c(F)c3)cc(C(F)(F)F)c2O1 [Compound 205] | 1 µM
COc1ccc(C#Cc2ccc(C(=O)O)cc2)cc1C12CC3CC(CC(C3)C1)C2 [Compound 214] | 1.9 µM
CC1(C)CC(C)(C)c2cc(C(=O)Nc3ccc(C(=O)O)c(F)c3)cc(C3CC3)c2O1 [Compound 204] | 0.7 µM
COc1cc(C(=O)Nc2ccc(C(=O)O)c(F)c2)cc2c1OC(C)(C)CC2(C)C [Compound 226] | > 10 µM
O=C(O)c1ccc2cc(-c3ccc(O)c(C45CC6CC(CC(C6)C4)C5)c3)ccc2c1 [Compound 233] | 1.3 µM
CC1(C)CCSc2ccc(C#Cc3ccc(CC(=O)O)cc3)cc21 [Compound 202] | 0.6 µM
CC1(C)CCC(C)(C)c2cc(C#Cc3ccc(C(=O)O)cc3)ccc21 [Compound 216] | 3.3 µM
CC1=C(/C=C/C#Cc2ccc(C(=O)O)s2)C(C)(C)CCC1 [Compound 245] | 3.3 µM
CC1(C)CC(C)(C)c2cc(C(=O)Nc3ccc(C(=O)O)c(F)c3)cc(-c3ccccc3)c2O1 [Compound 224] | 5.5 µM
CC1(C)CCC(C)(C)c2c1cc(O)c(C(=O)Nc1ccc(C(=O)O)cc1)c2F [Compound 246] | 3.1 µM
CC1=C(/C=C/C#Cc2ccc(C(=O)O)cc2)C(C)(C)CCC1(C)C [Compound 212] | 7 µM
CC1=C(/C=C/C#Cc2ccc(C(=O)O)c(F)c2)C(C)(C)CCC1 [Compound 229] | 1.6 µM
CC1(C)CCCc2cc(C#Cc3ccc(C(=O)O)cc3)ccc21 [Compound 218] | 3.4 µM
CC(C)(C)c1cc(C#Cc2ccc(C(=O)O)cc2)cc(Cl)c1O [Compound 209] | 1.7 µM
CC1(C)CCOc2c(Br)cc(C(=O)Nc3ccc(C(=O)O)c(F)c3)cc21 [Compound 225] | > 10 µM
CC1(C)CCSc2ccc(C#Cc3ccc(C(=O)O)cc3)cc21 [Compound 215] | 6.2 µM
CC1(C)CC(C)(C)c2cc(C(=O)Nc3ccc(C(=O)O)c(F)c3)ccc2O1 [Compound 228] | 6 µM
CC1(C)CC(C)(C)c2cc(C(=O)Nc3ccc(C(=O)O)c(F)c3)cc(Cl)c2O1 [Compound 203] | 0.62 µM
CC1(C)CCC(C)(C)c2cc(C(=O)Oc3ccc(C(=O)O)cc3)ccc21 [Compound 243] | 7.4 µM
